Measured values from the supplement of paper PMC10307832.

Columns and labels:
Experiment in all cases: relative viability (nuclei count vs DMSO), 5 days (fraction); higher = more cells survive
[1] = test system: NCI-H358
Summary of the method: (§1)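 Relative viability divides the nuclei count in treated wells by that in vehicle wells. Lung cancer cell lines were seeded in 1536-well plates, dosed by pin tool the next day, and fixed and stained after 5 days in one step with final 0.05% Triton X-100, 1% formaldehyde and 1 ug/ml Hoechst. Dosing was a single drug or a fixed anchor-drug dose plus five library-drug doses (not always all listed) in √10 steps, and values are medians of duplicate plates imaged at 4×.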

[2] = test system: EPLC-272H
Summary of the method: as §1

[3] = test system: A-427
Summary of the method: as §1

[4] = test system: NCI-H1915
Summary of the method: as §1

[5] = test system: EKVX
Summary of the method: as §1

[6] = test system: NCI-H2023
Summary of the method: as §1

[7] = test system: NCI-H1734
Summary of the method: as §1

[8] = test system: COR-L23
Summary of the method: as §1

[9] = test system: NCI-H1395
Summary of the method: as §1

[10] = test system: NCI-H3122
Summary of the method: as §1

[11] = test system: NCI-H650
Summary of the method: as §1

[12] = test system: NCI-H2087
Summary of the method: as §1

## O=C(O)CCCCC(CCSCc1ccccc1)SCc1ccccc1 (configuration not stated) [CPI-613] + O=C(CCCCCCC(=O)Nc1ccccc1)NO [Vorinostat] (partner 1 µM)
[1]; first compound 5 µM
  relative viability: 0.683
[1]; first compound 15.81 µM
  relative viability: 0.561
[1]; first compound 50 µM
  relative viability: 0.62
[1]; first compound 158.11 µM
  relative viability: 0.0809
[1]; first compound 500 µM
  relative viability: 0.0166
[2]; first compound 5 µM
  relative viability: 0.509
[2]; first compound 15.81 µM
  relative viability: 0.406
[2]; first compound 50 µM
  relative viability: 0.268
[2]; first compound 158.11 µM
  relative viability: 0.0975
[2]; first compound 500 µM
  relative viability: 0.0196
[3]; first compound 5 µM
  relative viability: 0.884
[3]; first compound 15.81 µM
  relative viability: 0.822
[3]; first compound 50 µM
  relative viability: 0.827
[3]; first compound 158.11 µM
  relative viability: 0.726
[3]; first compound 500 µM
  relative viability: 0.492
[4]; first compound 5 µM
  relative viability: 0.502
[4]; first compound 15.81 µM
  relative viability: 0.54
[4]; first compound 50 µM
  relative viability: 0.488
[4]; first compound 158.11 µM
  relative viability: 0.467
[4]; first compound 500 µM
  relative viability: 0.0403
[5]; first compound 5 µM
  relative viability: 0.695
[5]; first compound 15.81 µM
  relative viability: 0.668
[5]; first compound 50 µM
  relative viability: 0.637
[5]; first compound 158.11 µM
  relative viability: 0.258
[5]; first compound 500 µM
  relative viability: 0.429
[6]; first compound 5 µM
  relative viability: 0.537
[6]; first compound 15.81 µM
  relative viability: 0.475
[6]; first compound 50 µM
  relative viability: 0.572
[6]; first compound 158.11 µM
  relative viability: 0.0274
[6]; first compound 500 µM
  relative viability: 0.007
[7]; first compound 5 µM
  relative viability: 0.66
[7]; first compound 15.81 µM
  relative viability: 0.768
[7]; first compound 50 µM
  relative viability: 0.704
[7]; first compound 158.11 µM
  relative viability: 0.147
[7]; first compound 500 µM
  relative viability: 0.107
[8]; first compound 5 µM
  relative viability: 0.42
[8]; first compound 15.81 µM
  relative viability: 0.387
[8]; first compound 50 µM
  relative viability: 0.371
[8]; first compound 158.11 µM
  relative viability: 0.125
[8]; first compound 500 µM
  relative viability: 0.0123
[9]; first compound 5 µM
  relative viability: 0.792
[9]; first compound 15.81 µM
  relative viability: 0.613
[9]; first compound 50 µM
  relative viability: 0.871
[9]; first compound 158.11 µM
  relative viability: 0.653
[9]; first compound 500 µM
  relative viability: 0.745
[10]; first compound 5 µM
  relative viability: 0.795
[10]; first compound 15.81 µM
  relative viability: 0.89
[10]; first compound 50 µM
  relative viability: 0.961
[10]; first compound 158.11 µM
  relative viability: 0.728
[10]; first compound 500 µM
  relative viability: 0.805
[11]; first compound 5 µM
  relative viability: 0.447
[11]; first compound 15.81 µM
  relative viability: 0.365
[11]; first compound 50 µM
  relative viability: 0.301
[11]; first compound 158.11 µM
  relative viability: 0.297
[11]; first compound 500 µM
  relative viability: 0.414
[12]; first compound 5 µM
  relative viability: 0.817
[12]; first compound 15.81 µM
  relative viability: 0.725
